This is an account of results in US10287274B2, “5-hydroxytryptamine receptor 7 activity modulators and their method of use” (TEMPLE UNIVERSITY OF THE COMMONWEALTH SYSTEM OF HIGHER …, priority 2013, dated 2019).

The experiment has as its target Serotonin 5HT7 receptors (Homo sapiens (Human), UniProt P34969). The experiment is described as follows: Radiolabel Binding Studies for Serotonin 5HT7 receptors. The settings on record: read-out: 5-HT7 % inhib @ 10 uM.

Chain of Serotonin 5HT7 receptors (P34969 whole entry): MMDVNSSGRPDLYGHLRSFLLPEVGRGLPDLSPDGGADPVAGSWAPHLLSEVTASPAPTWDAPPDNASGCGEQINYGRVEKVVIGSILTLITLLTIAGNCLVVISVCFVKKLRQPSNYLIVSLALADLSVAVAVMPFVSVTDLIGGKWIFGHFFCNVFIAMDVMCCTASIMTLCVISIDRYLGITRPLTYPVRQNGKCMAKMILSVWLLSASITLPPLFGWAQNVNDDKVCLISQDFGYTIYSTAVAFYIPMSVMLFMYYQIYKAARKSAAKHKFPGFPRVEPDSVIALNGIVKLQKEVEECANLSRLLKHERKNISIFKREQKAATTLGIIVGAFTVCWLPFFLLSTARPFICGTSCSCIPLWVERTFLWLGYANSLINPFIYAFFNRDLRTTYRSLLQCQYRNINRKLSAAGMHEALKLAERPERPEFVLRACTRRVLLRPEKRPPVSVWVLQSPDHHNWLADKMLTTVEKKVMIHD
Description: Radiolabel Binding Studies for Serotonin 5HT7 Receptors, Method 1:
Eleven dilutions (5× assay concentration) of the compound of the disclosure and chlorpromazine are prepared in the Assay Buffer by serial dilution to yield final corresponding assay concentrations ranging from 10 pM to 10 μM.
A stock concentration of 5 nM [^3H]LSD (lysergic acid diethyl amide) is prepared in 50 mM Tris-HCl, 10 mM MgCl2, 1 mM EDTA, pH 7.4 (Assay Buffer). Aliquots (50 μl) of radioligand are dispensed into the wells of a 96-well plate containing 100 μl of Assay Buffer. Duplicate 50-μl aliquots of the compound of the disclosure test and chlorpromazine positive control reference compound serial dilutions are added.
Membrane fractions of cells expressing recombinant 5HT7 receptors (50 μL) are dispensed into each well. […]
The 250-μl reactions are incubated at room temperature for 1.5 hours, then harvested by rapid filtration onto 0.3% polyethyleneimine-treated, 96-well filter mats using a 96-well Filtermate harvester. […] The filter mats are dried, then scintillant is added to the filters and the radioactivity retained on the filters is counted in a Microbeta scintillation counter. […]

For `CC1(C)CC(CCN2CCN(c3ccccc3C#N)CC2)OC1=O` (stereo not shown) [Entry 19], the inhibition at 10 µM was 85.7%.
